Results on 16 compounds are retold here after ChEMBL document CHEMBL4052738, “Design and synthesis of 4-morpholino-6-(1,2,3,6-tetrahydropyridin-4-yl)-N-(3,4,5-trimethoxyphenyl)-1,3,5-triazin-2-amine analogues as tubulin polymerization inhibitors” (Bioorg Med Chem Lett, 2017).

SMILES strings stand for the structures. pIC50: −log10 of the molar value.

Holding throughout (type): functional, cell-based
One assay deals with HeLa. The experiment in a line: Antiproliferative activity against human HeLa cells after 48 hrs by sulforhodamine B assay. In general terms: In SRB staining, fixed cells bind dye roughly in proportion to their protein.
The next assay relates to HepG2. The experiment in a line: Antiproliferative activity against human HepG2 cells after 48 hrs by sulforhodamine B assay. The conditions noted are these: HepG2, 48 h.
For another assay, the system named is A549. Nature of the assay: Antiproliferative activity against human A549 cells after 48 hrs by sulforhodamine B assay. The conditions noted are these: A549, 48 h.
The subject of the next assay is MCF7. The experiment in a line: Antiproliferative activity against human MCF7 cells after 48 hrs by sulforhodamine B assay. To be noted: MCF7, 48 h.

As to `COc1cc(Nc2nc(C3=CCN(C(=O)c4ccc(Br)cc4)CC3)nc(N3CCOCC3)n2)cc(OC)c1OC`, the pIC50 (as a rule, −log10 of the IC50, conventionally taken in molar units) is 4.39 in the assay on HeLa, 4.45 in the assay on HepG2, 4.47 in the assay with A549 and 4.40 with MCF7.
`COc1cc(Nc2nc(C3=CCN(C(=O)Nc4ccc(Cl)cc4)CC3)nc(N3CCOCC3)n2)cc(OC)c1OC`: the pIC50 was 4.51 in the assay with HeLa, 4.46 in the assay with HepG2, 4.44 with A549 and 4.54 with MCF7.
As for `COc1cc(Nc2nc(C3=CCN(C(=O)C(F)(F)F)CC3)nc(N3CCOCC3)n2)cc(OC)c1OC`, the pIC50 with HeLa was 4.37; in the assay with HepG2 it was 4.30; in the assay on A549 it was 4.54; in the assay with MCF7 it was 4.32.
As for `COc1cc(Nc2nc(C3=CCN(C(=O)Cc4c[nH]c5ccccc45)CC3)nc(N3CCOCC3)n2)cc(OC)c1OC`, the pIC50 is 4.48 in the assay with HeLa, 4.49 in the assay with HepG2, 4.36 with A549 and 4.53 in the assay on MCF7.
Turning to `COc1cc(Nc2nc(C3=CCN(S(=O)(=O)c4ccc(Br)s4)CC3)nc(N3CCOCC3)n2)cc(OC)c1OC`, the pIC50 was 4.40 with HeLa, 4.55 in the assay with HepG2, 4.54 with A549 and 4.51 with MCF7.
For the compound `COc1ccc(NC(=O)N2CC=C(c3nc(Nc4cc(OC)c(OC)c(OC)c4)nc(N4CCOCC4)n3)CC2)cc1`, the negative-log IC50 (pIC50) was 4.39 in the assay with HeLa, 4.36 in the assay on HepG2, 4.34 with A549 and 4.58 in the assay with MCF7.
In the case of `COc1cc(Nc2nc(C3=CCN(C(=O)Nc4ccc(F)c(F)c4)CC3)nc(N3CCOCC3)n2)cc(OC)c1OC`, the pIC50 in the assay on HeLa is 4.52; with HepG2, 4.46; in the assay on A549, 4.29; in the assay on MCF7 it was 4.51.
Taken in the same sequence, the figures for `COc1cc(Nc2nc(C3=CCN(S(=O)(=O)c4ccc(C)cc4)CC3)nc(N3CCOCC3)n2)cc(OC)c1OC` were 4.34, 4.60, 4.39 and 4.38.
For `COc1cc(Nc2nc(C3=CCN(C(=O)CS)CC3)nc(N3CCOCC3)n2)cc(OC)c1OC`, the pIC50 in the assay on HeLa is 4.48; in the assay on HepG2, 4.48; in the assay on A549 it was 4.36; in the assay with MCF7, 4.52.
With `COc1cc(Nc2nc(C3=CCN(C(=O)CC#N)CC3)nc(N3CCOCC3)n2)cc(OC)c1OC`, the pIC50 in the assay with HeLa is 4.47; in the assay with HepG2 it was 4.53; in the assay on A549, 4.38; with MCF7 it was 4.39.
With `COc1cc(Nc2nc(C3=CCN(S(=O)(=O)c4ccc(C(C)(C)C)cc4)CC3)nc(N3CCOCC3)n2)cc(OC)c1OC`, the negative logarithm of the IC50 (pIC50) is 4.30 in the assay on HeLa, 4.32 in the assay with HepG2, 4.47 with A549 and 4.39 with MCF7.
Turning to `COc1cc(Nc2nc(C3=CCN(S(=O)(=O)c4ccc(C(F)(F)F)cc4)CC3)nc(N3CCOCC3)n2)cc(OC)c1OC`, the pIC50 was 4.49 in the assay on HeLa, 4.57 with HepG2, 4.52 in the assay with A549 and 4.39 with MCF7.
For `CCN1CCN(C(=O)N2CC=C(c3nc(Nc4cc(OC)c(OC)c(OC)c4)nc(N4CCOCC4)n3)CC2)CC1`, the pIC50 is 4.40 in the assay with HeLa, 4.34 in the assay on HepG2, 4.36 in the assay with A549 and 4.52 with MCF7.
For `COc1cc(Nc2nc(C3=CCN(S(C)(=O)=O)CC3)nc(N3CCOCC3)n2)cc(OC)c1OC`, the pIC50 with HeLa was 4.49; with HepG2, 4.55; with A549, 4.41; with MCF7, 4.54.
As to `COc1cc(Nc2nc(C3=CCN(S(=O)(=O)c4ccc([N+](=O)[O-])cc4)CC3)nc(N3CCOCC3)n2)cc(OC)c1OC`, the negative logarithm of the IC50 (pIC50) with HeLa is 4.49; with HepG2 it was 4.36; in the assay on A549 it was 4.46; in the assay on MCF7, 4.39.
`COc1cc(Nc2nc(C3=CCN(C(=O)c4ccncc4)CC3)nc(N3CCOCC3)n2)cc(OC)c1OC`: the pIC50 was 4.30 with HeLa, 4.40 in the assay with HepG2, 4.31 with A549 and 4.49 in the assay on MCF7.
